Measured values published in patent publication US9006250B2, “4-amino-6-(heterocyclic)picolinates and 6-amino-2-(heterocyclic)pyrimidine-4-carboxylates and their use as herbicides” (Dow AgroSciences, LLC, priority 2013, dated 2015).

Assays:
[1] = test system: ABUTH: velvetleaf (Abutilon theophrasti); test: Post-Emergent Test II herbicidal activity; type: in vivo; conditions: post-emergence, 336 h, 14 days, read-out: Visual Growth Reduction (%) 14 Days After Application ABUTH; for pest or weed control at 35 g/ha: 35 g ai/ha; for pest or weed control at 70 g/ha: 70 g ai/ha; for pest or weed control at 140 g/ha: 140 g ai/ha
Procedure, shortened: (§1)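 Greenhouse post-emergence spray, 1st–2nd true leaf stage. Track sprayer, 187 L/ha, acetone/DMSO/IPA/crop oil/Triton formulation; 1×, ½×, ¼×, ⅛×, 1/16× rates. Subirrigated; % injury vs untreated, 14 d.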

[2] = test system: AMARE: redroot pigweed (Amaranthus retroflexus); test: Post-Emergent Test II herbicidal activity; type: in vivo; conditions: post-emergence, 336 h, 14 days, read-out: Visual Growth Reduction (%) 14 Days After Application AMARE; for pest or weed control at 35 g/ha: 35 g ai/ha; for pest or weed control at 70 g/ha: 70 g ai/ha; for pest or weed control at 140 g/ha: 140 g ai/ha
Procedure, shortened: as §1

[3] = test system: BRSNN: oilseed rape, canola (Brassica napus); test: Post-Emergent Test II herbicidal activity; type: in vivo; conditions: post-emergence, 336 h, 14 days, read-out: Visual Growth Reduction (%) 14 Days After Application BRSNN; for pest or weed control at 35 g/ha: 35 g ai/ha; for pest or weed control at 70 g/ha: 70 g ai/ha; for pest or weed control at 140 g/ha: 140 g ai/ha
Procedure, shortened: as §1

[4] = test system: CHEAL: lambsquarters (Chenopodium album); test: Post-Emergent Test II herbicidal activity; type: in vivo; conditions: post-emergence, 336 h, 14 days, read-out: Visual Growth Reduction (%) 14 Days After Application CHEAL; for pest or weed control at 35 g/ha: 35 g ai/ha; for pest or weed control at 70 g/ha: 70 g ai/ha; for pest or weed control at 140 g/ha: 140 g ai/ha
Procedure, shortened: as §1

[5] = test system: CYPES: yellow nutsedge (Cyperus esculentus); test: Post-Emergent Test II herbicidal activity; type: in vivo; conditions: post-emergence, 336 h, 14 days, read-out: Visual Growth Reduction (%) 14 Days After Application CYPES; for pest or weed control at 35 g/ha: 35 g ai/ha; for pest or weed control at 70 g/ha: 70 g ai/ha; for pest or weed control at 140 g/ha: 140 g ai/ha
Procedure, shortened: as §1

[6] = test system: ECHCG: barnyardgrass (Echinochloa crus-galli); test: Post-Emergent Test II herbicidal activity; type: in vivo; conditions: post-emergence, 336 h, 14 days, read-out: Visual Growth Reduction (%) 14 Days After Application ECHCG; for pest or weed control at 35 g/ha: 35 g ai/ha; for pest or weed control at 70 g/ha: 70 g ai/ha; for pest or weed control at 140 g/ha: 140 g ai/ha
Procedure, shortened: as §1

[7] = test system: EPHHL: wild poinsettia (Euphorbia heterophylla); test: Post-Emergent Test II herbicidal activity; type: in vivo; conditions: post-emergence, 336 h, 14 days, read-out: Visual Growth Reduction (%) 14 Days After Application EPHHL; for pest or weed control at 35 g/ha: 35 g ai/ha; for pest or weed control at 70 g/ha: 70 g ai/ha; for pest or weed control at 140 g/ha: 140 g ai/ha
Procedure, shortened: as §1

[8] = test system: HELAN: sunflower (Helianthus annuus); test: Post-Emergent Test II herbicidal activity; type: in vivo; conditions: post-emergence, 336 h, 14 days, read-out: Visual Growth Reduction (%) 14 Days After Application HELAN; for pest or weed control at 35 g/ha: 35 g ai/ha; for pest or weed control at 70 g/ha: 70 g ai/ha; for pest or weed control at 140 g/ha: 140 g ai/ha
Procedure, shortened: as §1

[9] = test system: ORYSA: rice (Oryza sativa); test: Post-Emergent Test II herbicidal activity; type: in vivo; conditions: post-emergence, 336 h, 14 days, read-out: Visual Growth Reduction (%) 14 Days After Application ORYSA; for pest or weed control at 35 g/ha: 35 g ai/ha; for pest or weed control at 70 g/ha: 70 g ai/ha; for pest or weed control at 140 g/ha: 140 g ai/ha
Procedure, shortened: as §1

[10] = test system: SETFA: giant foxtail (Setaria faberi); test: Post-Emergent Test II herbicidal activity; type: in vivo; conditions: post-emergence, 336 h, 14 days, read-out: Visual Growth Reduction (%) 14 Days After Application SETFA; for pest or weed control at 35 g/ha: 35 g ai/ha; for pest or weed control at 70 g/ha: 70 g ai/ha; for pest or weed control at 140 g/ha: 140 g ai/ha
Procedure, shortened: as §1

[11] = test system: TRZAS: wheat, spring (Triticum aestivum); test: Post-Emergent Test II herbicidal activity; type: in vivo; conditions: post-emergence, 336 h, 14 days, read-out: Visual Growth Reduction (%) 14 Days After Application TRZAS; for pest or weed control at 35 g/ha: 35 g ai/ha; for pest or weed control at 70 g/ha: 70 g ai/ha; for pest or weed control at 140 g/ha: 140 g ai/ha
Procedure, shortened: as §1

[12] = test system: ZEAMX: maize, corn (Zea mays); test: Post-Emergent Test II herbicidal activity; type: in vivo; conditions: post-emergence, 336 h, 14 days, read-out: Visual Growth Reduction (%) 14 Days After Application ZEAMX; for pest or weed control at 35 g/ha: 35 g ai/ha; for pest or weed control at 70 g/ha: 70 g ai/ha; for pest or weed control at 140 g/ha: 140 g ai/ha
Procedure, shortened: as §1

SMILES | pest or weed control at 35 g/ha [1] [%] | pest or weed control at 70 g/ha [1] [%] | pest or weed control at 140 g/ha [1] [%] | pest or weed control at 35 g/ha [2] [%] | pest or weed control at 70 g/ha [2] [%] | pest or weed control at 140 g/ha [2] [%] | pest or weed control at 35 g/ha [3] [%] | pest or weed control at 70 g/ha [3] [%] | pest or weed control at 140 g/ha [3] [%] | pest or weed control at 35 g/ha [4] [%] | pest or weed control at 70 g/ha [4] [%] | pest or weed control at 140 g/ha [4] [%] | pest or weed control at 35 g/ha [5] [%] | pest or weed control at 70 g/ha [5] [%] | pest or weed control at 140 g/ha [5] [%] | pest or weed control at 35 g/ha [6] [%] | pest or weed control at 70 g/ha [6] [%] | pest or weed control at 140 g/ha [6] [%] | pest or weed control at 35 g/ha [7] [%] | pest or weed control at 70 g/ha [7] [%] | further results
COC(=O)c1nc(-c2cc3nonc3cc2F)c(F)c(N)c1Cl [Compound 3, Methyl 4-amino-3-chloro-5-fluoro-6-(6-fluorobenzo[c][1,2,5]oxadiazol-5-yl)picolinate] | 45 to 59 | 0 to 29 | 0 to 29 | 95 to 100 | 95 to 100 | 95 to 100 | 85 to 94 | 85 to 94 | 95 to 100 | 85 to 94 | 85 to 94 | 85 to 94 | 60 to 74 | 95 to 100 | 95 to 100 | 95 to 100 | 95 to 100 | 75 to 84 | 45 to 59 | 45 to 59 | pest or weed control at 140 g/ha [7]: 60 to 74%; pest or weed control at 35 g/ha [8]: 85 to 94%; pest or weed control at 70 g/ha [8]: 85 to 94%; pest or weed control at 140 g/ha [8]: 95 to 100%; pest or weed control at 35 g/ha [9]: 0 to 29%; pest or weed control at 70 g/ha [9]: 0 to 29%; pest or weed control at 140 g/ha [9]: 0 to 29%; pest or weed control at 35 g/ha [10]: 45 to 59%; pest or weed control at 70 g/ha [10]: 45 to 59%; pest or weed control at 140 g/ha [10]: 45 to 59%; pest or weed control at 35 g/ha [11]: 45 to 59%; pest or weed control at 70 g/ha [11]: 45 to 59%; pest or weed control at 140 g/ha [11]: 60 to 74%; pest or weed control at 35 g/ha [12]: 60 to 74%; pest or weed control at 70 g/ha [12]: 60 to 74%; pest or weed control at 140 g/ha [12]: 75 to 84%; melting point: 180 to 182 °C
COC(=O)c1nc(-c2cc3nonc3cc2F)cc(N)c1Cl [Compound 4, Methyl 4-amino-3-chloro-6-(6-fluorobenzo[c][1,2,5]oxadiazol-5-yl)picolinate] | 85 to 94 | 95 to 100 | 95 to 100 | 95 to 100 | 95 to 100 | 95 to 100 | 85 to 94 | 95 to 100 | 95 to 100 | 85 to 94 | 95 to 100 | 95 to 100 | 95 to 100 | 95 to 100 | 95 to 100 | 85 to 94 | 95 to 100 | 85 to 94 | 95 to 100 | 95 to 100 | pest or weed control at 140 g/ha [7]: 95 to 100%; pest or weed control at 35 g/ha [8]: 85 to 94%; pest or weed control at 70 g/ha [8]: 85 to 94%; pest or weed control at 140 g/ha [8]: 85 to 94%; pest or weed control at 35 g/ha [9]: 0 to 29%; pest or weed control at 70 g/ha [9]: 0 to 29%; pest or weed control at 140 g/ha [9]: 30 to 44%; pest or weed control at 35 g/ha [10]: 60 to 74%; pest or weed control at 70 g/ha [10]: 60 to 74%; pest or weed control at 140 g/ha [10]: 60 to 74%; pest or weed control at 35 g/ha [11]: 60 to 74%; pest or weed control at 70 g/ha [11]: 75 to 84%; pest or weed control at 140 g/ha [11]: 75 to 84%; pest or weed control at 35 g/ha [12]: 85 to 94%; pest or weed control at 70 g/ha [12]: 85 to 94%; pest or weed control at 140 g/ha [12]: 85 to 94%; melting point: 199 to 201 °C
